# According to patent US7906486B2, “Method of treating or preventing tissue deterioration, injury or damage due to disease of mucosa” (SciClone Pharmaceuticals, Inc., priority 2007, dated 2011):
# “And” between values parts separate entries of the source, which are not always exact repeats. Equal values may be shown once.
# System: oral mucositis induced by acute radiation (40 Gy, left buccal cheek pouch)
# Experiment: Oral mucositis induced by acute radiation in hamsters, mucositis scoring (Example 2, SCI-02)
# Assay type: in vivo, Syrian Golden Hamsters
# Set-up: key to peak mean mucositis score: 0 = normal to 5 = severe ulceration (visual scale); key to Mucositis score: 0: Pouch completely healthy. No erythema or vasodilation.; 1: Light to severe erythema and vasodilation. No erosion of mucosa.; 2: Severe erythema and vasodilation. Erosion of superficial aspects of mucosa leaving denuded areas. Decreased stippling of mucosa.; 3: Formation of off-white ulcers in one or more places. Ulcers may have a yellow/gray due to pseudomembrane. Cumulative size of ulcers should equal about ¼ of the pouch. Severe erythema and vasodilation.; 4: Cumulative seize of ulcers should equal about ½ of the pouch. Loss of pliability. Severe erythema and vasodilation.; 5: Virtually all of pouch is ulcerated. Loss of pliability (pouch can only partially be extracted from mouth)
# Conditions: for % Days >=3 / Days <3 / Days >=3 / Chi Sq v control: sc, days -1 to 20; for Mucositis score: Group 2 (SCV-07 100 μg/kg once daily, days -1 to 20), individual animals, two scores per animal; for Days >=3: animal days with mucositis score of three or more; for Chi Sq v control: days with score >=3
# Source text: The acute radiation model in hamsters, developed by the Principle Investigator, has proven to be an accurate, efficient and cost-effective technique to provide a preliminary evaluation of anti-mucositis compounds. The course of mucositis in this model is well defined and results in peak scores approximately 14-16 Days following radiation. The acute model has little systemic toxicity, resulting in few hamster deaths, thus permitting the use of smaller groups (N=7-8) for initial efficacy studies. It has also been used to study specific mechanistic elements in the pathogenesis of mucositis. Molecules that show efficacy in the acute radiation model may be further evaluated in the more complex models of fractionated radiation, chemotherapy, or concomitant therapy.
# In this study, an acute radiation dose of 40 Gy on day 0 was administered. Clinically significant mucositis was observed on days 12 through 28.
# Forty (40) Syrian Golden Hamsters were given an acute radiation dose of 40 Gy directed to their left buccal cheek pouch on day 0. Test material SCV-07 was given by sub-cutaneous injection at 100 μg/kg or 1 mg/kg once or twice daily. Dosing began one day before radiation (day −1) and continued until day 20. Mucositis was evaluated clinically starting on day 6, and continuing on alternate days until day 28.
# The grade of mucositis was scored, beginning day 6, and for every second day thereafter, through and including day 28. The effect on mucositis of each drug treatment compared to placebo was assessed according to the following parameters:
# On each evaluation day, the number of animals with a blinded mucositis score of ≧3 in each drug treatment group was compared to the control group. Differences were compared on a cumulative basis and statistical significance was determined by chi-square analysis. Efficacy, in this analysis, is defined by a significant reduction in the number of days that a group of animals had ulcerations (scores ≧3) when compared to the control group. This same test was also used to evaluate differences between different drug treatment groups.
# For each evaluation day the scores of the control group were compared to those of the treated groups using non-parametric rank sum analysis. Treatment success was considered as a statistically significant lowering of scores in the treated group on 2 or more days from day 6 to day 28.
# Forty Syrian Golden Hamsters were divided into five (5) groups of eight (8) animals each. All animals received a single dose of acute radiation of 40 Gy directed to their left buccal cheek pouch on day 0. This was accomplished by anesthetizing the animals and everting the left buccal pouch, while protecting the rest of the animals with a lead shield. Test materials were given by sub-cutaneous injection once daily as detailed in Table 5. Mucositis was evaluated clinically starting on Day 6, and continuing on alternate days until day 28.
# Mucositis was induced using a standardized acute radiation protocol. A single dose of radiation (40 Gy/dose) was administered to all animals on day 0. Radiation was generated with a 160 kilovolt potential (15-ma) source at a focal distance of 30 cm, hardened with a 0.35 mm Cu filtration system. Irradiation targeted the left buccal pouch mucosa at a rate of 3.2 Gy/minute. Prior to irradiation, animals were anesthetized with an intraperitoneal injection of Ketamine (160 mg/kg) and Xylazine (8 mg/kg). The left buccal pouch was everted, fixed and isolated using a lead shield to protect all other parts of the hamster's body.
# The mucositis score, weight change and survival were measured throughout the study as described above. For the evaluation of mucositis, the animals were anesthetized with an inhalation anesthetic, and the left pouch everted. Mucositis was scored visually by comparison to a validated photographic scale, ranging from 0 for normal, to 5 for severe ulceration (clinical scoring). In descriptive terms, this scale is defined as follows: […]
# [1] = 100 ug/kg once daily from day -1 to 20
# [2] = 1 mg/kg once daily from day -1 to 20
# [3] = 1 mg/kg twice daily from day -1 to 20
compound,measurement,setting,value
"N[C@H](CCC(=O)N[C@@H](Cc1c[nH]c2ccccc12)C(=O)O)C(=O)O [SCV-07, γ-D-glutamyl-L-tryptophan]",day of peak mean mucositis score,[1],16
same,peak mean mucositis score,[1],2.2
same,peak mean mucositis score,100 ug/kg twice daily from day -1 to 20,2.5
same,% Days >=3,"100 ug/kg, bid",8.9%
same,Days <3,"100 ug/kg, bid",175
same,% Days >=3,"100 ug/kg, qd",6.3%
same,Days <3,"100 ug/kg, qd",180
same,day of peak mean mucositis score,[2],14
same,peak mean mucositis score,[2],2.9
same,improvement in daily mucositis scores relative to controls (Mann-Whitney rank sum),"1 mg/kg once daily on days -1 to 20, any day of the study",no significant improvement in mucositis on any day
same,day of peak mean mucositis score,[3],14
same,peak mean mucositis score,[3],2.6
same,% Days >=3,"1 mg/kg, bid",12.5%
same,Days <3,"1 mg/kg, bid",168
same,% Days >=3,"1 mg/kg, qd",28.1%
same,Days <3,"1 mg/kg, qd",138
same,Mucositis score,day 6,1 (6×) and 0 (2×)
same,Mucositis score,day 8,1
same,Mucositis score,day 10,2 (4×) and 1 (4×)
same,Mucositis score,day 12,2 (7×) and 3
same,Mucositis score,day 14,2
same,Mucositis score,day 16,2
same,Mucositis score,day 18,2 (5×) and 3 (2×) and 1
same,Mucositis score,day 20,2 (6×) and 3 (2×)
same,Mucositis score,day 22,1 (2×) and 2 (7×)
same,Mucositis score,day 24,1 (3×) and 2 (6×)
same,Mucositis score,day 26,1 (2×) and 2 (7×)
same,Mucositis score,day 28,1 (7×) and 2 (2×)
same,Days >=3,"100 ug/kg, bid",17
same,Days >=3,"100 ug/kg, qd",12
same,Days >=3,"1 mg/kg, bid",24
same,Days >=3,"1 mg/kg, qd",54
same,"P, number of animal days with a score of 3 or higher, 100 ug/kg once daily vs 1 mg/kg twice daily","chi-squared test, no statistically significant difference",0.054
same,Chi Sq v control,"100 ug/kg, bid",21.4010
same,Chi Sq v control,"100 ug/kg, qd",27.828
same,Chi Sq v control,"1 mg/kg, bid",12.7360
same,Chi Sq v control,"1 mg/kg, qd",0.0000
